Experimental data as given in patent publication US10500164B2, “Nanoparticle-based combinatorial therapy” (The American University in Cairo, priority 2014, dated 2019).

Experiment: In-vitro drug release of DOX in Tris-HCl buffer pH 5 and PBS pH 7.4
Assay type: physicochemical
Conditions: free DOX solution control, over 4 hrs
Procedure: FIGS. 7A-B show according to an exemplary embodiment of the invention in-vitro release of free DOX, and DOX-NCs in Tris-HCl buffer pH 5 (FIG. 7A) and PBS pH 7.4 (FIG. 7B).
Since the release behavior of DOX-NCs at the desired site is of a great importance for formulating an ideal cancer-targeted drug delivery system, in-vitro release studies were performed at two different pH values were tested: pH 7.4, which mimics the pH of the blood stream and pH 5, which mimics the pH of the endosomes within cancer cells. In-vitro results […] that DOX-AgNCs, DOX-Ag/PVA NCs, DOX-Ag/PEG NCs and DOX-Ag/PVP NCs released 96.6%, 97.4%, 98% and 96.4% of DOX at pH 5. While at pH 7.4, the release percentages of DOX were 73.4%, 54.3%, 59.8% and 68.5% over the course of 6 hrs. […] In-vitro release is shown of free DOX, and DOX-NCs in Tris-HCl buffer pH 5 (FIG. 7A) and PBS pH 7.4 (FIG. 7B).

COc1cccc2c1C(=O)c1c(O)c3c(c(O)c1C2=O)C[C@@](O)(C(=O)CO)C[C@@H]3O[C@H]1C[C@H](N)[C@H](O)[C@H](C)O1 [free DOX, Doxorubicin]
release percentage of DOX (pH 5): 97.4%
release percentage of DOX (pH 7.4): 67.7%
